A value given as a limit tells only on which side of the number the result lay.

The conditions of series [1]: from CC(C)(C)OC(=O)N[C@H]1CCCN[C@H]1COC1CCC(c2ccccc2CCC(=O)O)CC1; amide bond; 13-membered ring; HATU/DIEA; MeCN; 0.36 mM; 2.0 h.
The conditions of series [2]: from CC(C)(C)OC(=O)N[C@H]1CCCN[C@H]1COC1CCC(c2ccccc2CCC(=O)O)CC1; amide bond; 13-membered ring; HATU/DIEA; MeCN; 0.36 mM; 2.0 h. This is another data set of the same source.
Series [3] has as its system MDCK-MDR1 cells. Nature of the series: MDCK-MDR1 permeability assay. The following applies: MDCK-MDR1 cells; for Papp A→B (10^−6 cm/s): apical to basolateral, 3 μM test compound, 2 hours at 37 degrees C. In kind it is in vitro ADME. The method in brief: (§1)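 Bidirectional transport across MDCK-MDR1 monolayers with test compound at 3 μM in HBSS, Lucifer Yellow 100 μM co-dosed as integrity marker; 2 h at 37 °C, donor and receiver quantified by LC-MS/MS. Papp = dQ/dt × 1/(A×C0); efflux ratio = Papp(B→A)/Papp(A→B), ER>2 taken as active transport.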

The test system of series [4] is MDR1. The series is described as follows: MDCK-MDR1 permeability assay. To be noted: dog, MDCK-MDR1, Papp (basolateral to apical) divided by Papp (apical to basolateral), MDCK-MDR1 cells, 3 μM; read-out: Efflux ratio (ER). In kind it is in vitro ADME. The method in brief:
as §1

Series [5] in a line: Hepatocytes stability assay (human hepatocytes). In kind it is in vitro ADME. The following applies: both sexes, cryopreserved hepatocytes, 1 μM test compound, 1×10^6 cell/mL, 37 degrees C, read-out: CLint (μL/min/million cells). The method in brief:
(§2)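 Cryopreserved pooled (50 donors, mixed gender) human hepatocytes at 1×10^6 cells/mL in Krebs-Henseleit buffer with 1 μM compound (0.1% DMSO), 37 degrees C, sampled 0–240 min. Parent depletion by LC-MS/MS; first-order fit gave T1/2 and CLint, scaled to hepatic clearance via well-stirred model (fu assumed 1); extraction ratio = CL,hep/liver blood flow.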

The test system of series [6] is human hepatocytes. The series is described as follows: Hepatocytes stability assay (human hepatocytes). In kind it is in vitro ADME. To be noted: for Extraction Ratio (ER): scaled hepatic clearance divided by liver blood flow, fu assumed unity. The method in brief:
as §2

For series [7], the target named is T1, human orexin-2 receptor (OX2R) (Homo sapiens, UniProt O43614).
T1 construct: expressed in transfected cells
T1 sequence (O43614 1-444): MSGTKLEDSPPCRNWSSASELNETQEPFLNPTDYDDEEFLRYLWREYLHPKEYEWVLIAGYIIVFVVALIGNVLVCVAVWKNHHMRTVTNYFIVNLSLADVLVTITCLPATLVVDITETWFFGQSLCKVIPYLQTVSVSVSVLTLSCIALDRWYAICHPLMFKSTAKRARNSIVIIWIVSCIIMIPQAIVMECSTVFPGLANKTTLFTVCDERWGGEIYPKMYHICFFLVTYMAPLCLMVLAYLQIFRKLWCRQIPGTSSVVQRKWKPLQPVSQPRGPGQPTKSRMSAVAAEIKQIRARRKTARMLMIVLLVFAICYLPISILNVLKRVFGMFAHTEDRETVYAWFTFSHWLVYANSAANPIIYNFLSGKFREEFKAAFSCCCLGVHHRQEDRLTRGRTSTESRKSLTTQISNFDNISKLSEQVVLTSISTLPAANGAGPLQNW
Nature of the series: Human OX2R IP1 assay. In kind it is cell-based. The following applies: T-Rex CHO cells stably overexpressing human OX2R, IP1 accumulation, 1 hr at 37 degrees C; mean EC50; ∧ = racemic mixture. Here is the method: T-Rex CHO cells stably overexpressing the human orexin-2 receptor (OX2R) were induced overnight with 1 μg/mL of doxycycline in a T225 flask. 24 hours post induction, cells were lifted with accutase and plated into a 384-well proxy plate at 30,000 cells/well. Cells were then treated with different test compounds in 1× stimulation buffer containing 10 mM Hepes, 1 mM CaCl2), 0.5 mM MgCl2, 4.2 mM KCl, 146 mM NaCl, 5.5 mM glucose, and 50 mM LiCl, pH 7.4, for 1 hr at 37 degrees C. Following incubation, the reaction was terminated by the addition of detection mix, which is composed of IP1-d2 and anti-IP1-cryptate diluted in lysis buffer as well as 1× stimulation buffer. The plates were allowed to incubate for 1 hour at room temperature and were then read in the EnVision® multimode plate reader, measuring inositol phosphate levels.
Cisbio IP1 is a cell-based functional assay quantifying the accumulation of inositol monophosphate (IP), a metabolite released as a result of orexin 2 receptor activation through the phospholipase C-Gq signaling pathway. This is a competitive immunoassay in which the IP1 produced by the cells upon receptor activation competes with the IP1 analog coupled to the d2 fluorophore (acceptor) for binding to an anti-IP1 monoclonal antibody labeled with Eu cryptate (donor). The measured HTRF-FRET based signal is inversely proportional to the IP1 concentration produced.
The EC50 values reported in Table 2 were obtained according to the human OX2R IP1 assay described above. Data are the mean EC50 values ±S.E.M. The compound methyl (2R,3S)-3-((methylsulfonyl)amino)-2-(((cis-4-phenylcyclohexyl)oxy)methyl)-piperidine-1-carboxylate is a reference compound which is disclosed in Example 5 of PCT publication no. WO2017/135306.

For the molecule `CC(C)(C)OC(=O)N[C@H]1CCCN2C(=O)CCc3ccccc3C3CCC(CC3)OC[C@@H]12`, the ring closure, conversion in series [1] came to 40%. The molecule further gave a ring closure, yield after HPLC in series [2] of 19%.

On to `CS(=O)(=O)N[C@H]1CCCN2C(=O)COc3nnccc3C3CCC(CC3)OCC12` (some centres unmarked) [Compound 56], for which, in series [3], the “Papp A→B (10^−6 cm/s)” value was 0.13 10^−6 cm/s. For the same molecule, in series [4], the efflux ratio at 2 h, 3 μM stood at 5.2. Further, the hepatocyte CLint at 1 μM in series [5] was below 1.9 µL/min/1e6 cells. For the same molecule, in series [6], the “Extraction Ratio (ER)” value is reported as below 0.22.

In the case of `CS(=O)(=O)N[C@H]1CCCN2C(=O)COc3nnccc3[C@H]3CC[C@H](CC3)OC[C@@H]12` [Compound 66], the EC50 (commonly the midpoint of the concentration-response curve) in series [7] is below 100 nM. Further, the “Papp A→B (10^−6 cm/s)” value in series [3] was <0.047 10^−6 cm/s. For the same molecule, the “Efflux ratio (ER)” value in series [3] (Papp (basolateral to apical) divided by Papp (apical to basolateral), 3 μM) was above 9.5. Further, the “CLint (μL/min/million cells)” value in series [6] (1 μM test compound, 1×10^6 cell/mL, 37 degrees C) is listed as below 1.9 μL/min/million cells. In addition, the “Extraction Ratio (ER)” value in series [6] is recorded as below 0.22.

These data come from US12054495B2, “Substituted macrocyclic compounds and related methods of treatment” (Alkermes, Inc., priority 2019, dated 2024).
